# Experiments:
# Format in all cases: in vivo, human
# [1] = system: NLRP3 and cytokines mRNA of PBMC of Stage D HF subjects; assay: PBMC NLRP3 and cytokine mRNA of Stage D HF patients pre- and post-oral NR; details: oral NR 5-9 days, post vs pre
# Method: For experiments associated with the oral NR administration (FIGS. 12C-12F), 5 hospitalized Stage D HF patients undergoing advanced heart failure therapy evaluations were put on escalating doses of NR (250 mg twice a day for Day 1, 500 mg twice a day for Day 2, and 1000 mg twice a day from Day 3 on) for 5-9 days. Fasting blood samples were obtained for PBMC isolation at baseline and post-NR administration. Subject 5 was withdrawn due to a change in clinical course deemed to be independent from NR administration.
# RNA Isolation and Quantitative PCR analysis. Total RNA was isolated from frozen PBMC pellets using Trizol (Invitrogen) per the manufacturer's instructions, and cDNA was synthesized using iScript™ Reverse Transcription Supermix (Bio-rad) per the manufacturer's instructions. Real-time PCR was performed in the Corbett rotor gene 6000 real-time PCR machine using iQ™ SYBR® Green Supermix (Bio-rad) and expression levels of the indicated genes were calculated using the ΔΔCt method.
# [2] = Randomized placebo-controlled 12-week trial of NR in clinically-stable HFrEF: safety and tolerability
# Description: The remaining 30 participants met all the prespecified inclusion criteria of: 1) Systolic HF (LVEF<40%, as determined by transthoracic echocardiogram) of non-ischemic or ischemic etiologies, 2) clinically stable (no cardiac procedures or hospitalizations for cardiac causes, including HF, ischemia or arrhythmia) within the prior 3 months, 3) ability to perform Study procedures (including study visits, blood draws and 6MWT), 4) willingness/ability to provide informed consent. None had any of the following exclusion criteria: 1) Heart failure with preserved ejection fraction (LVEF>40%), 2) HF etiologies other than non-ischemic or ischemic, 3) cardiac procedures, including, cardiac surgery, PCI, or cardiac device implantation, within the previous 3 months, 4) hospitalizations for cardiovascular causes, including HF, chest pain, stroke/TIA or arrhythmias within the prior 3 months, 5) inability to perform Study visits or procedures (e.g., physical inability to perform 6MWT), 6) unwillingness or inability to provide informed consent, 7) Alanine transaminase (ALT)>×3 upper limit of normal, hepatic insufficiency or active liver disease, 8) recent history of acute gout, 9) chronic renal insufficiency with serum creatinine ≥2.5 mg/dl, 10) pregnant or likely to become pregnant, 11) significant co-morbidity likely to cause death within 6 months, 12) significant history of active substance abuse within the previous 5 years, 13) current participation in a clinical trial of a study drug or intervention, and 14) prior intolerance to NR precursors, including niacin or nicotinamide. Follow-up was completed on all 30 participants. Study medication was discontinued in one participant due to gastrointestinal intolerance, but they completed all follow-up visits and procedures. The final participant refused to complete any study visits or procedures after the Week 0 (Randomization Visit), but their vital status was confirmed at the end of the Study. No participants were excluded from analysis, which followed the principal of intention-to-treat. The standardized method for characterizing adverse events employed in the UW Clinical Trials Unit is the Common Terminology Criteria for Adverse Events v3.0 (CTCAE). There were 18 protocol deviations.
# Study Design: The overall Study Design is depicted graphically in FIG. 15. Participant clinic visits, medication dispensing and data collection were performed on the Translational Research Unit (TRU) at the University of Washington (UW). […] History included assessment with the Minnesota Living with Heart Failure Questionnaire (MLHFQ), under license from the University of Minnesota (Minneapolis, Minn.).
# Participants were randomized to NR or placebo at a 2:1 allocation ratio by the University of Washington Investigational Drug Service, which assigned Study IDs and dispensed study medications.
# At Week 0 (Randomization), participants underwent history, repeat 6MWD assessment and baseline transthoracic echocardiogram (FIG. 15). NR or matching placebo were started at the initial dose of 250 mg orally twice daily, then up-titrated by 250 mg twice daily each week to a final dose of 1000 mg twice daily by Week 3. Participants were continued on the 1000 mg twice daily dose until the final clinic visit on Week 12. Blood draws for study labs, including levels of NR and NAD were obtained at Weeks 0, 2, 4 and 12. Medications were dispensed at Weeks 0, 2, 4 and 8, with pill counts performed at Weeks 2, 4, 8 and 12. A telephone visit was performed at Week 6. The final echocardiogram and PBMC mitochondrial respiration assays were performed at Week 12. Study labs were performed by the UW Research Testing Service, except for NR and NAD+ assays, which were performed by the Pharmacokinetics Laboratory, Department of Pharmaceutics, UW School of Pharmacy. Procedures for blood collection and processing, as well as NR and NAD+ assay procedures, have been described previously (Airhart S E, et al., PLoS One. 2017, 12:e0186459).
# [3] = system: peripheral blood mononuclear cells (PBMCs); assay: Randomized trial of NR in HFrEF: PBMC mitochondrial respiration; details: Week 12 vs Week 0, NR group
# Method: Peripheral Blood Mononuclear Cell (PBMC) Mitochondrial Function. PBMCs were isolated from freshly-collected whole blood by centrifugation in Sepmate™-50 PBMC isolation tubes (STEMCELL Technologies, Vancouver, BC, Canada; Cat. 85450). Isolated PBMCs were resuspended in Seahorse XF® medium (Agilent, Cat. 102353-100) and then plated (10^6 cells/well) onto Seahorse® (Agilent) 24-well plates. PBMC mitochondrial respiratory function was assessed by measuring the oxygen consumption rate (OCR) at baseline and maximal stimulated conditions as described in Zhou B, et al. (J Clin Invest. 2020, 130:6054-6063 (Experimental Example 1)). Exploratory Endpoints. The following endpoints were considered exploratory, as the Study was underpowered to detect differences.
smiles,measurement,setting,value
"NC(=O)c1ccc[n+]([C@@H]2O[C@H](CO)[C@@H](O)[C@H]2O)c1 [NR, nicotinamide riboside]",reduction of proinflammatory cytokine gene expressions,[1],up to 30 fold
same,total AEs reported on-trial,[2]; 20-participant NR group,63
same,"treatment-emergent laboratory abnormalities, NR vs placebo","[2]; HFrEF, 12 weeks",no significant differences
same,"treatment-emergent adverse events (AEs), NR vs placebo","[2]; HFrEF, up to 1000 mg twice daily, 12 weeks",no between-group differences
same,safety and tolerability,"[2]; dose up to 1000 mg twice daily, total treatment duration of 12 weeks",well-tolerated
same,out-of-range lab values,[2]; patients randomized to NR,creatinine greater than 1.5× but less than 3× baseline on 2 occasions in 1 patient
same,percentages of dispensed capsules taken (range),"[2]; returned pill counts, NR group",97 (91-100) %
same,baseline (basal) PBMC mitochondrial respiration rates,[3],not changed
same,maximal PBMC respiration,[3]; did not reach statistical significance,marginal increase

# Reference: patent publication US20230263817A1, “HIGH DOSE NICOTINAMIDE ADENINE DINUCLEOTIDE (NAD) PRECURSOR REGIMENS FOR REDUCTION OF INFLAMMATION IN HUMAN PATIENTS WITH PREEXISTING INFLAMMATION” (University of Washington, priority 2021, published 2023)
